The values below come from patent US10450549B2, “Aryloxyphenoxypropionate tolerance in turfrgass species and use of AAD1 as a selectable marker” (Dow AgroSciences, LLC, priority 2004, dated 2019).

In one test the test system is Non-transformed hybrids. The test is described as follows: Field tolerance to quizalofop and 2,4-D: non-transformed hybrids. It counts as in vivo, corn. To be noted: for % Injury 3 WAA (0-100 scale): 140 g ae/ha. The text has this:
(§1) Two field trials were established at field stations in Hawaii and Indiana. […] The hybrid Hi-II×5XH571 is of the same parentage as the AAD1 (v3) event lines. The hybrid Croplan 585SR is a sethoxydim resistant line.
(§2) The experimental design was a split-plot with four replications. The main plot was herbicide treatment and the sub-plot was AAD1 (v3) event or comparison hybrid. Plots were one row by 3.7 meters with approximately twenty-five seeds planted in each row. For AAD1 events, seeds from a different lineage within the event were planted in each replicate.
(§3) Glufosinate at 560 g ai/ha was applied to AAD1 (v3) plots at the V2 stage to eliminate non-transformed plants. […] Treatments were applied using backpack broadcast boom equipment delivering 187 L/ha carrier volume at 130-200 kpa pressure.
(§4) Quizalofop treated plots were visually assessed for crop injury at one and three weeks after application (WAA) using a 0-100% scale, where 0 equals no injury and 100 equals complete death.

The test system of a further test is AAD1 (v3) event lines. In words: Field tolerance of pDAB3404 T1 corn to quizalofop and 2,4-D: AAD1 (v3) events. As to conditions: 140 g ae/ha. The format is in vivo.
From the text: as §1, §2, §3, §4

Test [1] concerns non-transformed (NT) and seed-derived (WT) creeping bentgrass. In words: Quizalofop-p-ethyl postemergence on non-transformed / seed-derived creeping bentgrass controls. The format is in vivo, Agrostis stolonifera L. var. palustris. The protocol:
Selected T0 plants were sprayed with quizalofop-p-ethyl (Assure II®, DUPONT, Wilmington, Del.) at rates ranging from 60 to 2,240 g ae/ha. […] This rate also controls susceptible monocot weed species. Measured amounts were placed individually in 25 mL glass vials and dissolved in a 4 mL volume of 1.0% (v/v) Agri-Dex® Crop Oil Concentrate (COC) from HELENA CHEMICAL (Collierville, Tenn.). Application solutions were prepared by serial dilution of the highest rate applied. One-half the volume of the highest rate stock solution (2 mL) was transferred to a clean 25 mL vial containing an equal volume of 1% COC and the diluted solution was mixed. Additional dilutions were prepared similarly by removing one-half the volume of the previous concentration (2 mL), and adding to an equal volume of 1% COC and mixing. When preparing the lowest concentration, the remaining one-half volume was discarded. All 2 mL stock solutions were further diluted by adding 10 mL aqueous mixture of 1.0% (v/v) COC, so that the final spray solutions were 12 mL in volume and contained 1.0% (v/v) COC.
Spray solutions were applied to the plant material with an overhead Mandel™ track sprayer equipped with a 8002E nozzles calibrated to deliver 187 L/ha over an application area of 0.503 square meters (m^2) at a spray height of 18 inches (46 cm) above average plant canopy height. Control plants were sprayed in the same manner with the COC blank.
The treated plants and control plants were placed in a greenhouse, and watered by sub-irrigation to prevent wash-off of the test compounds. At various times after application, the condition of the test plants as compared with that of the untreated plants was determined visually and scored on a scale of 0 to 100 percent (where 0 corresponds to no injury or growth inhibition and 100 corresponds to complete kill). Regenerated, non-transformed (NT) ‘Crenshaw’ or elite line 2905-2 creeping bentgrass plants and/or seed-derived clonally propagated plants served as quizalofop sensitive controls.

The next test concerns callus event 3404-006. In words: Dose response of AAD1 (v3) expressing maize callus event. The format is cell-based. As to conditions: haloxyfop (Gallant Super) up to 400 nM. The protocol:
Non-transformed donor Hi-II cell lines were pooled together, […]-treated without DNA, filtered onto GN6 medium at the rate of 6 ml per filter, and allowed to callus for 2-3 weeks at 28° C. Approximately 200 mg of callused suspension tissue was transferred per treatment to selection media in 60×20 mm plates containing 30, 100 or 300 nM R-haloxyfop acid. Three replicates were used per concentration. A control medium containing 1 mg/L bialaphos (from Herbiace commercial formulation, Meiji Seika, Japan), GN6 (1H), was also included for comparison. Callus was removed after 2 weeks, weighed, and transferred to fresh media of the same concentration for another 2 weeks. After a total of 4 weeks elapsed time, tissue was removed, weighed a final time, and then discarded.
A smaller subset of these events was assessed in dose-response studies in comparison to a non-transformed control. A range of concentrations of haloxyfop (from Gallant Super formulation), up to 400 nM, were tested.

The target of a further test is T1, AAD1 (v1) (Sphingobium herbicidovorans, UniProt Q8KSC8).
T1 construct: made in house; host or cells: E. coli BL-21 Star (DE3), plasmid pDAB3203
T1 sequence (Q8KSC8 whole entry): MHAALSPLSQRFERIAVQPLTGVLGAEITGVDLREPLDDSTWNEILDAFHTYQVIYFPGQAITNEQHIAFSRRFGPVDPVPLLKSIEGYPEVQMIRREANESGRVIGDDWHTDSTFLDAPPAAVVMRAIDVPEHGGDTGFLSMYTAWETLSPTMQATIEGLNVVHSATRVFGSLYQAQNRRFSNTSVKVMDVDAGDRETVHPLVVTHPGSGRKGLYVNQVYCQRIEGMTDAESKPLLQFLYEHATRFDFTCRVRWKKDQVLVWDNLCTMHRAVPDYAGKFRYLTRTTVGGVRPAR
The test is described as follows: HPLC analysis of herbicide degradation by AAD1 (v1) cell extract. The format is biochemical.

With `C[C@@H](Oc1ccc(Oc2cnc3cc(Cl)ccc3n2)cc1)C(=O)O` [quizalofop], the “injury of non-transformed hybrids” value in the test on Non-transformed hybrids (70 g ae/ha, field) is 80-100%. Moreover, the “% Injury 3 WAA (0-100 scale)” value stood at 96% with Non-transformed hybrids (HI, CROPLAN 585SR); 100% in the test with Non-transformed hybrids (HI, DK493); 100% in the test on Non-transformed hybrids (HI, HI-II X 5XH571); 80% in the test with Non-transformed hybrids (IN, CROPLAN 585SR); 100% in the test with Non-transformed hybrids (IN, DK493); 100% in the test with Non-transformed hybrids (IN, HI-II X 5XH571). Further, the “% Injury 3 WAA (0-100 scale)” value is recorded as 25% in the test on AAD1 (v3) event lines (HI, 3404.001); 0% in the test with AAD1 (v3) event lines (HI, 3404.006); 0% in the test with AAD1 (v3) event lines (HI, 3404.013); 0% with AAD1 (v3) event lines (HI, 3404.017); 0% in the test with AAD1 (v3) event lines (HI, 3404.020); 0% in the test on AAD1 (v3) event lines (HI, 3404.022). Also, the “% Injury 3 WAA (0-100 scale)” value with AAD1 (v3) event lines (HI, 3404.025) came out at 0%; with AAD1 (v3) event lines (HI, 3404.027), 0%; in the test on AAD1 (v3) event lines (HI, 3404.031) it was 0%; in the test on AAD1 (v3) event lines (HI, 3404.033), 0%; in the test on AAD1 (v3) event lines (HI, 3404.036) it was 0%; in the test on AAD1 (v3) event lines (HI, 3404.044), 0%. The “% Injury 3 WAA (0-100 scale)” value in the test on AAD1 (v3) event lines (HI, 3404.050) is recorded as 0%; with AAD1 (v3) event lines (HI, 3404.053), 0%; in the test with AAD1 (v3) event lines (HI, 3404.074), 0%; in the test on AAD1 (v3) event lines (HI, 3404.082), 0%; with AAD1 (v3) event lines (IN, 3404.001), 25%; in the test on AAD1 (v3) event lines (IN, 3404.006), 0%. For the same compound, the “% Injury 3 WAA (0-100 scale)” value in the test with AAD1 (v3) event lines (IN, 3404.013) amounted to 0%; with AAD1 (v3) event lines (IN, 3404.017), 0%; with AAD1 (v3) event lines (IN, 3404.020) it was 0%; with AAD1 (v3) event lines (IN, 3404.022), 0%; with AAD1 (v3) event lines (IN, 3404.025) it was 0%; in the test on AAD1 (v3) event lines (IN, 3404.027), 0%. Moreover, the “% Injury 3 WAA (0-100 scale)” value is reported as 0% with AAD1 (v3) event lines (IN, 3404.031); 0% in the test on AAD1 (v3) event lines (IN, 3404.033); 0% in the test with AAD1 (v3) event lines (IN, 3404.036); 0% in the test with AAD1 (v3) event lines (IN, 3404.044); 0% with AAD1 (v3) event lines (IN, 3404.050); 0% with AAD1 (v3) event lines (IN, 3404.053). Besides, the “% Injury 3 WAA (0-100 scale)” value in the test on AAD1 (v3) event lines (IN, 3404.074) is listed as 0%; with AAD1 (v3) event lines (IN, 3404.082), 0%. For the same compound, the “injury of control, non-transgenic plants” value in test [1] (60 g ae/ha, 21 to 24 DAA) is given as “about 70%”; in test [1] (120 and 480 g ae/ha, 11, 14, 20 DAA), “about 80% injury to greater than 90% injury”; in test [1] (120 g ae/ha, 21 to 24 DAA) it was around 80%; in test [1] (240 g ae/ha, 21 to 24 DAA) it was around 90%; in test [1] (480 g ae/ha, 21 to 24 DAA), around 100%.

Turning to `CCOC(=O)[C@@H](C)Oc1ccc(Oc2cnc3cc(Cl)ccc3n2)cc1` [quizalofop-p-ethyl], the “Visual Injury 39 DAA” value in test [1] (240 g ae/ha, regenerated non-transformed control NT1) is reported as 95%. In test [1] (both rates (120 and 480 g ae/ha)), the “injury on non-transformed controls” value is listed as at least 80%. For the same compound, the “Mean % Injury (SE)” value is given as 83 (3) % in test [1] (non-transformed control NT1, 120 g ae/ha, 11 DAA); 88 (3) % in test [1] (non-transformed control NT1, 120 g ae/ha, 14 DAA); 90 (0) % in test [1] (non-transformed control NT1, 120 g ae/ha, 20 DAA); 85 (0) % in test [1] (non-transformed control NT1, 480 g ae/ha, 11 DAA); 90 (0) % in test [1] (non-transformed control NT1, 480 g ae/ha, 14 DAA); 97 (2) % in test [1] (non-transformed control NT1, 480 g ae/ha, 20 DAA). The “Mean % Injury (SE)” value in test [1] (non-transformed control NT2, 120 g ae/ha, 11 DAA) is recorded as 80 (0) %; in test [1] (non-transformed control NT2, 120 g ae/ha, 14 DAA) it was 90 (0) %; in test [1] (non-transformed control NT2, 120 g ae/ha, 20 DAA), 93 (3) %; in test [1] (non-transformed control NT2, 480 g ae/ha, 11 DAA) it was 90 (0) %; in test [1] (non-transformed control NT2, 480 g ae/ha, 14 DAA), 90 (0) %; in test [1] (non-transformed control NT2, 480 g ae/ha, 20 DAA), 97 (2) %. In test [1] (seed grown plants), the “GR90 (herbicide rate which produces 90% injury and/or growth inhibition)” value was “approximately 60 g ae/ha”.

In the case of `CC(Oc1ccc(Oc2ncc(C(F)(F)F)cc2Cl)cc1)C(=O)O` (centres unmarked) [haloxyfop], the “callus growth of event 3404-006” value in the test with callus event 3404-006 is recorded as “no significant reduction in callus growth”.

On to `Nc1c(Cl)c(F)nc(OCC(=O)O)c1Cl` [Fluroxypyr], for which the “enzyme activity on substrate (HPLC)” value on AAD1 (v1) (AAD1 (v1) cell extract, same conditions as 2,4-D) was “No enzyme activity was detected”.

On to `O=C(O)COc1ccc(Cl)cc1Cl` [2,4-D, 2,4-dichlorophenoxyacetic acid], for which, at AAD1 (v1) (partially purified proteins, in vitro), the “conversion of 2,4-D to DCP” value is recorded as 50-100%. Besides, the “2,4-D degraded to DCP as measured by HPLC” value on AAD1 (v1) (regardless of assay conditions (longer incubations, more enzyme)) is on record as 50-75%. For the same compound, in the test on Non-transformed hybrids (1120 g ae/ha, 2 DAA), the “epinastic leaning in non-transformed hybrids” value is reported as 11-33%. Besides, the “brace root deformation rating (0-10 scale)” value in the test with Non-transformed hybrids (1120 g ae/ha, non-transformed hybrids, 3-4 WAA) amounted to 9.
